Measurements from article PMC11291853, “Haemodynamic, hormonal and renal actions of osteocrin in normal sheep” (Experimental Physiology, 2024).
Where no end group is shown, it is not given here.

Columns and labels:
Type in all cases: in vivo
normal conscious sheep [1] = test: Renal responses (hourly urine collections, nephrogenous cGMP/cAMP) to stepped OSTN infusion; settings: for Urine cAMP / Urine creatinine / Urine potassium: hourly urine collection, sheep n = 8, mean ± SD
Procedure: Eight Coopworth ewes (4–6 years; 42–60 kg; Lincoln University Farm, New Zealand) were instrumented under general anaesthesia (induced by 0.5 mg/kg diazepam I.V. and 4 mg/kg ketamine I.V. and maintained with a mixture of isoflurane and oxygen) and using approved peri‐ and postoperative antibiotics (20 mg/kg cephazolin I.V.; 6.6–20 mg/kg oxytetracycline I.V.) and analgesia (4 mg/kg carprofen I.V.). Sheep were instrumented via a 50‐mm‐long neck incision, allowing cannulation of the left carotid artery (16 gauge Angiocath; Becton Dickinson, Sandy, UT, USA) for direct measurement of mean arterial pressure (MAP) and heart rate (HR). A polyethylene catheter was placed in the left jugular vein for blood sampling and recording of central venous pressure (CVP). A Swan–Ganz thermodilution catheter (Edwards Life Sciences, Irvine, CA, USA) was placed in the pulmonary artery via the jugular vein for the measurement of cardiac output (CO). The urinary bladder was catheterized per urethra for timed urine collections (Charles, Espiner, Nicholls et al., [1996]). Animals recovered for ≥5 days before commencing the study protocol.
(§1) Sheep received I.V. infusions of increasing doses of ovine proOSTN (83–133), the putative 51 aa circulating peptide (at 2.5, 25 and 250 pmol/kg/min for 1 h each; Mimotopes, Melbourne, Victoria, Australia) and a vehicle control (0.9% saline) administered on separate days, ≥1 day apart, in a balanced random order.
(§2) Blood samples for analysis of plasma sodium, potassium and creatinine concentrations were taken immediately before the first dose (baseline), then hourly throughout the study. Urine volume and samples for the measurement of urine cGMP, urine cAMP, sodium, potassium and creatinine excretion were collected hourly throughout the study protocol. To estimate the contribution of renal tissues to urine cGMP/cAMP excretion, nephrogenous cGMP/cAMP was calculated using the formula [urine cG(A)MP − (glomerular filtration rate × plasma cG(A)MP/urine volume × min] (Hirata et al., [1990]).

normal conscious sheep [2] = test: Plasma sodium, potassium and creatinine during stepped OSTN infusion; settings: sheep n = 8, mean ± SD
Procedure: as §1, §2

normal conscious sheep [3] = test: Plasma renin activity and aldosterone responses to stepped OSTN infusion; settings: sheep n = 8, mean ± SD
Procedure: as §1
Venous blood samples were obtained at 30 min and immediately preceding commencement of the first infusion (baseline) and at 30 min intervals for the duration of the study day. Samples were taken into tubes on ice, centrifuged at 4°C and stored at −20°C before assaying. Following extraction over C18 SepPac cartridges (Waters Corp., Milford, MA, USA), plasma concentrations of cGMP (Charles et al., [1990]), ANP (Charles et al., [1990]), BNP (Pemberton et al., [1997]), CNP (Charles et al., [1995]) and N‐terminal proCNP (NTproCNP) (Wilson et al., [2015]), were measured by radioimmunoassay (RIA) as previously described. Non‐extracted plasma renin activity (PRA) (Dunn & Espiner, [1976]) and aldosterone (Lun et al., [1983]) were measured as previously described. Cyclic AMP was measured by enzyme‐linked immunosorbent assay (catalogue no. ADI‐900‐163; Enzo Life Sciences, Farmingdale, NY, USA). For each analyte, all samples from individual animals were measured in the same assay to avoid interassay variability. Haematocrit concentrations were measured with every blood sample taken.

[4] = 4 h, 1 h after end of infusions
[5] = 5 h, 2 h after end of infusions
[6] = 1 h, end of OSTN 2.5 pmol/kg/min I.V.
[7] = 2 h, end of OSTN 25 pmol/kg/min I.V.
[8] = 3 h, end of OSTN 250 pmol/kg/min I.V.

“SFSGFGSPLDRLSAGSVSHKGKQRKVVDHPKRRFGIPMDRIGRNRLSNSRG [OSTN]” was tested. Which “Urine cAMP” value (normal conscious sheep [1]; 1 h, OSTN 2.5 pmol/kg/min I.V.) did it give?
Its value is 674 ± 367 pmol/h.

And the Urine creatinine (normal conscious sheep [1]; 1 h, OSTN 2.5 pmol/kg/min I.V.)?
The Urine creatinine was 0.635 ± 0.100 mmol/h.

What about the Urine potassium (normal conscious sheep [1]; 1 h, OSTN 2.5 pmol/kg/min I.V.) of the same sequence?
The Urine potassium was 15.6 ± 3.5 mmol/h.

And the “Urine cAMP” value (normal conscious sheep [1]; 2 h, OSTN 25 pmol/kg/min I.V.)?
Its value is 699 ± 322 pmol/h.

And the Urine creatinine (normal conscious sheep [1]; 2 h, OSTN 25 pmol/kg/min I.V.)?
Its Urine creatinine is 0.593 ± 0.100 mmol/h.

What about the Urine potassium (normal conscious sheep [1]; 2 h, OSTN 25 pmol/kg/min I.V.) of the same sequence?
The Urine potassium was 12.7 ± 4.9 mmol/h.

And the “Urine cAMP” value (normal conscious sheep [1]; 3 h, OSTN 250 pmol/kg/min I.V.)?
The value was 549 ± 211 pmol/h.

And the Urine creatinine (normal conscious sheep [1]; 3 h, OSTN 250 pmol/kg/min I.V.)?
Its Urine creatinine is 0.586 ± 0.200 mmol/h.

And the Urine potassium (normal conscious sheep [1]; 3 h, OSTN 250 pmol/kg/min I.V.)?
Its Urine potassium is 9.9 ± 3.6 mmol/h.

What about the “Urine cAMP” value (normal conscious sheep [1]; [4]) of the same sequence?
Its value is 452 ± 219 pmol/h.

And the Urine creatinine (normal conscious sheep [1]; [4])?
The Urine creatinine was 0.533 ± 0.200 mmol/h.

What about the Urine potassium (normal conscious sheep [1]; [4]) of the same sequence?
Its Urine potassium is 7.9 ± 3.4 mmol/h.

And the “Urine cAMP” value (normal conscious sheep [1]; [5])?
Its value is 891 ± 1136 pmol/h.

What about the Urine creatinine (normal conscious sheep [1]; [5]) of the same sequence?
Its Urine creatinine is 0.542 ± 0.100 mmol/h.

And the Urine potassium (normal conscious sheep [1]; [5])?
Its Urine potassium is 7.4 ± 3.6 mmol/h.

And the “Urine sodium excretion (natriuresis)” value (normal conscious sheep [1]; stepped OSTN infusions vs vehicle, P = 0.226)?
Its value is “did not increase”.

What about the “Urinary rate (diuresis)” value (normal conscious sheep [1]; stepped OSTN infusions vs vehicle, P = 0.467) of the same sequence?
The value was “did not increase”.

And the “Urinary cGMP excretion” value (normal conscious sheep [1]; stepped OSTN infusions vs vehicle, dose-dependent, P = 0.002)?
Its value is “increased”.

And the Plasma creatinine (normal conscious sheep [2]; [6])?
Its Plasma creatinine is 76.6 ± 7.5 µmol/L.

And the Plasma potassium (normal conscious sheep [2]; [6])?
The Plasma potassium was 3.8 ± 0.3 mmol/L.

And the Plasma sodium (normal conscious sheep [2]; [6])?
Its Plasma sodium is 147.0 ± 2.6 mmol/L.

What about the Plasma creatinine (normal conscious sheep [2]; [7]) of the same sequence?
The Plasma creatinine was 75.6 ± 6.9 µmol/L.

And the Plasma potassium (normal conscious sheep [2]; [7])?
Its Plasma potassium is 4.0 ± 0.5 mmol/L.

What about the Plasma sodium (normal conscious sheep [2]; [7]) of the same sequence?
The Plasma sodium was 147.0 ± 2.5 mmol/L.

What about the Plasma creatinine (normal conscious sheep [2]; [8]) of the same sequence?
Its Plasma creatinine is 76.4 ± 8.5 µmol/L.

What about the Plasma potassium (normal conscious sheep [2]; [8]) of the same sequence?
Its Plasma potassium is 4.0 ± 0.5 mmol/L.

And the Plasma sodium (normal conscious sheep [2]; [8])?
Its Plasma sodium is 146.9 ± 2.4 mmol/L.

And the Plasma creatinine (normal conscious sheep [2]; [4])?
The Plasma creatinine was 75.6 ± 8.9 µmol/L.

What about the Plasma potassium (normal conscious sheep [2]; [4]) of the same sequence?
The Plasma potassium was 4.1 ± 0.6 mmol/L.

What about the Plasma sodium (normal conscious sheep [2]; [4]) of the same sequence?
Its Plasma sodium is 147.1 ± 2.2 mmol/L.

And the Plasma creatinine (normal conscious sheep [2]; [5])?
Its Plasma creatinine is 74.6 ± 8.5 µmol/L.

What about the Plasma potassium (normal conscious sheep [2]; [5]) of the same sequence?
Its Plasma potassium is 4.3 ± 0.6 mmol/L.

And the Plasma sodium (normal conscious sheep [2]; [5])?
The Plasma sodium was 146.5 ± 2.1 mmol/L.

And the Plasma aldosterone (normal conscious sheep [3]; [6])?
The Plasma aldosterone was 199 ± 156 pmol/L.

What about the Plasma renin activity (normal conscious sheep [3]; [6]) of the same sequence?
The Plasma renin activity was 0.153 ± 0.070 nmol/L/h.

What about the Plasma aldosterone (normal conscious sheep [3]; [7]) of the same sequence?
Its Plasma aldosterone is 176 ± 137 pmol/L.

And the Plasma renin activity (normal conscious sheep [3]; [7])?
Its Plasma renin activity is 0.153 ± 0.065 nmol/L/h.

What about the Plasma aldosterone (normal conscious sheep [3]; [8]) of the same sequence?
Its Plasma aldosterone is 167 ± 157 pmol/L.

And the Plasma renin activity (normal conscious sheep [3]; [8])?
Its Plasma renin activity is 0.155 ± 0.075 nmol/L/h.

What about the Plasma aldosterone (normal conscious sheep [3]; [4]) of the same sequence?
Its Plasma aldosterone is 153 ± 142 pmol/L.

What about the Plasma renin activity (normal conscious sheep [3]; [4]) of the same sequence?
The Plasma renin activity was 0.186 ± 0.109 nmol/L/h.

What about the Plasma aldosterone (normal conscious sheep [3]; [5]) of the same sequence?
The Plasma aldosterone was 192 ± 130 pmol/L.

And the Plasma renin activity (normal conscious sheep [3]; [5])?
Its Plasma renin activity is 0.241 ± 0.181 nmol/L/h.
